# Experimental data: patent US20200071327A1, “Prodrugs for the Treatment of Disease” (Oppilan Pharma Ltd., priority 2017, published 2020)
# Target: T1, full-length human S1P1 (Homo sapiens, UniProt P21453)
# T1 construct: CHO-K1 Gαqi5 cells expression full-length human S1P1; expressed in transfected cells; host or cells: CHO-K1 Gαqi5 cells (membrane preparation)
# Assay: GTPγS binding assay (scintillation proximity assay) on S1P1 membranes
# Type: biochemical
# Conditions: membranes from CHO-K1 Gαqi5 cells expressing full-length human S1P1; GTPγ35S; 60 minutes incubation
# Method: S1P1 membrane is prepared from CHO-K1 Gαqi5 cells expression full-length human S1P1. Scintillation proximity assay (SPA) is performed by incubating membranes, GTPγ^35S, and compound 11 at various concentrations for 60 minutes. Wheat germ agglutinin-coated SPA beads are added and incubated for 60 minutes before centrifugation and scintillation counting.
# T1 sequence (P21453 whole entry): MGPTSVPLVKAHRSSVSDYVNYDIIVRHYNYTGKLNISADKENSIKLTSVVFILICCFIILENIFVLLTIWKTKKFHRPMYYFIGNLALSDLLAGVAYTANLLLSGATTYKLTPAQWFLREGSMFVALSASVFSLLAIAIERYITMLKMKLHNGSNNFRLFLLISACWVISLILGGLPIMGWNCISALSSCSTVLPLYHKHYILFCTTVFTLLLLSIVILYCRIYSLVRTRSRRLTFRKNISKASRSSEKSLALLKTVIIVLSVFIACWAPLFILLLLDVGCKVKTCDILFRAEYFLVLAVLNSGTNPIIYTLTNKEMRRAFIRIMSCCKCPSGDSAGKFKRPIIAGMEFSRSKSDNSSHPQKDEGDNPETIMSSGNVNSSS
compound,measurement,value
"O=C1CC[C@@H](Oc2cc(Cl)c(-c3noc(-c4cn5cc(C(F)(F)F)cc(Cl)c5n4)n3)cc2Cl)CN1 [compound 11, (R)-5-(2,5-diehloro-4-(5-(8-chloro-6-(trifluoromethyl)imidazo[1,2-a]pyridin-2-yl)-1,2,4-oxadiazol-3-yl)phenoxy)piperidin-2-one]",EC50,< 1000 nM
